The test system of one series is mice. To be noted: metal chloride salts in aqueous solution, mice i.p.; cited from earlier work.
Series [1] has as its system liver and kidney. Briefly: MR imaging experiments on healthy rats: percent enhancement of liver and kidney. It is filed as in vivo, rat (female Fischer 344). To be noted: 0.10 mmol/kg, tail vein, FIG. 1. As to the method: Animal studies were performed with a 1.5-T superconducting MR unit (Signa. GE Medical Systems) using a send-and-receive head coil containing two anesthetized female Fischer 344 rats. After a localizer image were obtained, a spin-echo pulse sequence were used with a 256×256 matrix (three signals acquired) over a 20-cm field of view with a thickness of 3 mm and a 1.5-mm intersection gap. The pulse sequence parameters were TR =300 ms and TE =20 ms. Sagittal images were collected before administration of the contrast agent, and after administration, five more images were collected. Operator defined region-of-interest (ROI) measurements were made upon the organs under study for the pre- and postcontrast images. ROI measurements were recorded for the liver and kidney. For the liver, three slices were studied and for the kidneys, a single slice through each kidney was studied.
Percent enhancement was calculated by the following equation: [formula]
Female Fischer 334 rats were used in the imaging experiments. The subjects were weighed and anesthetized with 65 mg/kg pentobarbital. The preinjection pulse sequence was performed, then the contrast agent was administered. The concentration used was 0.10 mmollkg with an injection volume of 0.5 mL used throughout, administered over a time range of approximately three minutes. […]

Series [2] concerns liver and kidney. The conditions noted are these: over the same time period as FIG. 1; Davies et al. 1996, U.S. Pat. No. 5,494,656; cited from earlier work.
In another series the test system is Muscle. Briefly: T1-weighted MRI of tumor-bearing rats: percentage enhancement of muscle. It is filed as in vivo, rat (inbred Copenhagen, male). The conditions noted are these: 100 μmol agent/kg bw iv, muscle line below large tumor. An excerpt: (§1) A T1 -weighted MRI examination (SE 400/15; SISCO SIS 85, 2 T) of the iron complex of ligand XI, Fe-DESAC, in rats (inbred Copenhagen, male, ca. 250 g bw) with implanted prostatic tumors (Dunning R3327, MAT/Lu) in the thigh muscles has been performed.
(§2) A T1 -weighted MRI examination (SE 400/15; SISCO SIS 85, 2 T) of three of these new MR contrast agents, the Fe(III) complexes of ligands XI, XVII and XXII in rats (inbred Copenhagen, male, ca. 250 g bw) with implanted prostatic tumors (Dunning R3327, MAT/Lu) in the thigh muscles was performed.

Series [3] relates to implanted prostatic tumors (Dunning R3327, MAT/Lu). Kind of series: T1-weighted MRI of tumor-bearing rats: percentage enhancement of tumor. The series is classed as in vivo, rat (inbred Copenhagen, male).
From the text: as §1
Thus, differentiation of tumor from surrounding muscle was straightforward with both contrast agents.
as §2

This is an account of results in US6146615A, “Contrast agents for image enhancement in magnetic resonance imaging” (priority 1999, dated 2000).

Entries after “also recorded” stand apart in the source; their conditions may differ. Bounds are passed on as bounds.

Consider `[Gd]` [gadolinium], for which the LD50 (commonly the dose expected to kill half of the subjects tested) in the series on mice was 1.4 mmol/kg.
As to Fe(III) tris(tironate), the liver-specificity entry in the series with liver and kidney [1] is “does not show this tissue specificity”. For the same molecule, the liver enhancement in the series with liver and kidney [2] is given as at most 15%.
Turning to `O=C([O-])CN(CCN(CC(=O)[O-])CC(=O)O)CCN(CC(=O)[O-])CC(=O)O.[Gd+3]` [Gd-DTPA, gadolinium ion chelated with the ligand diethylenetriaminepentaacetic acid], the “Percentage enhancement, muscle (large, necrotic tumor), 1 hr” value in the series with Muscle (1 hr post contrast) is “+10 ± 6%”. Further, the “Percentage enhancement, muscle (large, necrotic tumor), 24 hr” value in the series with Muscle (24 hr post contrast) is listed as -4 ± 2%. Besides, the “Percentage enhancement, large, necrotic tumor, 1 hr” value in series [3] (100 μmol agent/kg bw iv, 1 hr post contrast) was “+52 ± 14%”. The “Percentage enhancement, large, necrotic tumor, 24 hr” value in series [3] (100 μmol agent/kg bw iv, 24 hr post contrast) is listed as -11 ± 8%. In addition, the “enhancement of necrotic tumor tissue” value in series [3] (large (almost completely necrotic) tumor, 24 hr post contrast) is recorded as “no such enhancement was found with Gd-DTPA; also recorded: no significant enhancement of tumor”. The “differentiation of tumor from surrounding muscle” value in series [3] (single iv application) is “straightforward”. Also, the “tumor enhancement, 3 hr” value in series [3] (single iv application, 3 hr post contrast) is given as “significant tumor enhancement”.
Regarding `[Mn+2]` [manganese], the LD50 in the series with mice is given as 1.5 mmol/kg.
Take iron: in the series with mice, the LD50 was 1.6 mmol/kg.
